Test results taken from patent publication US10622572B2, “Organic thin-film transistor and method for manufacturing the same, material for organic thin-film transistor, composition for organic thin-film transistor, compound, and organic semiconductor film” (FUJIFILM Corporation, priority 2015, dated 2020).
Where two headings read alike, the source gives them in different places.

Experiment: Solubility in organic solvents
Assay type: physicochemical
Settings: organic solvent or mixture, thermodynamic from solid
[1] = 5 mg in 1 mL anisole, read-out: Solubility Anisole
[2] = 5 mg in 1 mL chloroform, read-out: Solubility Chloroform
[3] = 5 mg in 1 mL tetrahydrofuran, read-out: Solubility Tetrahydrofuran
[4] = 5 mg in 1 mL tetralin, read-out: Solubility Tetralin
[5] = 5 mg in 1 mL toluene, read-out: Solubility Toluene

Measured: solubility

CC(C)[Si](C#Cc1cc2c(cc(C#C[Si](C(C)C)(C(C)C)C(C)C)c3c4ccsc4ccc23)c2ccc3sccc3c12)(C(C)C)C(C)C [Compound 1]
> 5000 µg/mL: [1] | [2] | [3] | [4] | [5]

CC(C)[Si](C#Cc1cc2c(cc(C#C[Si](C(C)C)(C(C)C)C(C)C)c3c2ccc2ccsc23)c2ccc3ccsc3c12)(C(C)C)C(C)C [Compound 2]
> 5000 µg/mL: [1] | [2] | [3] | [4] | [5]

CC(C)[Si](C#Cc1cc2c(cc(C#C[Si](C(C)C)(C(C)C)C(C)C)c3c4cc(F)sc4ccc23)c2ccc3sc(F)cc3c12)(C(C)C)C(C)C [Compound 3]
> 5000 µg/mL: [1] | [2] | [3] | [4] | [5]

CC(C)[Si](C#Cc1cc2c(cc(C#C[Si](C(C)C)(C(C)C)C(C)C)c3c2ccc2cc(F)sc23)c2ccc3cc(F)sc3c12)(C(C)C)C(C)C [Compound 4]
> 5000 µg/mL: [1] | [2] | [3] | [4] | [5]
